Experimental findings from paper PMC6063448, “Antimicrobial activity of linear lipopeptides derived from BP100 towards plant pathogens” (PLoS ONE, 2018) are described below.

Experiment [1] concerns defense-related genes in tomato plants. Put plainly: Induction of defense gene expression of tomato plants (RT-qPCR). The experiment is classed as in vivo, tomato cv. Rio Grande. Particulars: for BCB gene expression, fold induction / ERT3 gene expression, fold induction / GluA gene expression, fold induction / Harp gene expression, fold induction / LOX gene expression, fold induction / Osm2 gene expression, fold induction / PPO gene expression, fold induction / PR1 gene expression, fold induction / PinII gene expression, fold induction / Sub1 gene expression, fold induction / Tas14 gene expression, fold induction: tomato leaves sprayed, 24 h, peptides and flg15 125 μM, JA 2.5 mM, ASM 300 mg/L, ΔΔCt relative to actin, above 2 = overexpression; for Defense gene expression in tomato plants (genes overexpressed): treatment at 125 μM, significant overexpression (REST2009). The protocol:
Seeds of tomato cv. Rio Grande plants were sown in hydroponic seed plugs (rockwool), germinated and grown under controlled greenhouse conditions (25 ± 2°C, 16 h light / 15 ± 2°C, 8 h dark, and 60% RH). Two-week old seedlings (two cotyledons) were transplanted into rockwool plugs (7.5×7.5×6.5 cm, Grodan Iberica). The experimental design consisted of three replicates of three plants per treatment. After two weeks, tomato leaves were sprayed with aqueous solutions of BP100, 9 selected derivatives and flg15 at 125 μM, jasmonic acid at 2.5 mM (Sigma-Aldrich, Sant Louis, Missouri, UE), and acybenzolar-S-methyl at 300 mg/L (Syngenta, Basel, Switzerland), until the run-off point. Water-sprayed plants were used as not treated controls. Twenty-four hours after product application leaf samples were collected and processed to extract RNA for RT-qPCR assays. Plant material was ground to a fine powder in liquid nitrogen with the Tissuelyzer II system (Qiagen). Total RNA was extracted from leaves using PureLink Plant RNA Reagent (Invitrogen, Life Technologies) according to the manufacturer’s manual. The RNA was solubilized in RNAse free water and was routinely subjected to DNAse treatment (Ambion® Turbo DNA-free™, Life Technologies) to remove any contaminant DNA. In each step, the RNA was quantified using a Nanodrop N-2000 spectrophotometer, and its integrity verified by denaturing agarose gel electrophoresis. First-strand of complementary DNA (cDNA) was generated from leave RNA using reverse transcriptase (High Capacity cDNA Reverse Transcription Kit, Invitrogen) according to the manufacturer’s manual.
To test gene defense induction in the treated tomato plants, a qPCR assay was performed. Quantitative PCR was carried out in a fluorometric thermal cycler (qPCR Quant Studio 5, Applied Biosystems) by using a Mix SYBR®Green PCR Master Mix (Applied Biosystems). The total reaction volume of this PCR reaction was 20 μL and the reaction mixture was 1 μL of each primer set at the adequate concentration, 10 μL of MixSyber Green, 6 μL of distilled water and 2 μL of cDNA. Melting curve analysis was performed after amplification to verify amplification specificity. A constitutive gene (actin gene) was used as reference control, and the following genes implicated in plant defense response were analyzed: Pathogenesis-related protein-1 (PR1), Harpin (Harp), Polyphenol oxidase (PPO), Subtilisin-like protease (Sub1), Blue copper binding-protein (BCB), Osmotin (Osm2), Acidic β-1,3 endoglucanase (GluA), Lypoxigenase (LOX), Protein inhibitor II (PinII), Dehydrin (Tas14) and Ethylene response transcription factor (ERT3). […] For each gene system, the concentration of the primer pair was optimized. The primer concentration was 100 nM for all the genes except for the GluA, Harp, PR1 and actin genes which optimized concentration was 300 nM. A calibration curve was prepared by cloning the corresponding DNA in the pSpark cloning vector (Canvax, Córdoba, Spain) according to the manufacturer instructions, which was then used to transform E. coli DH5α by standard procedures. The number of plasmid copies were quantified after purification from E. coli (QIAGEN Iberia, S. L., Madrid, Spain), and appropriate dilutions were prepared to obtain the standard curve. […] Relative quantification of gene expression was done using the ΔΔCt method. Each biological repetition treatment was analyzed in duplicate. The mean of the Ct values obtained were used to estimate the fold change value of the endogenous reference gene (actin) and the target plant defense genes.

Experiment [2] relates to Fusarium oxysporum f. sp. lycopersici FOL 3 race 2. Put plainly: MIC, antifungal growth inhibition in microtiter plates (PDB). Conditions: Fo, 22°C, seven days, OD 600 nm, lowest concentration with no growth, given as interval of tested concentrations, three replicates, experiment repeated twice. The experiment is classed as cell-based. The method in brief: (§1)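 Conidial suspensions (10^3 conidia/mL P. expansum, 10^4 F. oxysporum) incubated with peptides in PDB with 0.003% chloramphenicol at 22 °C for seven days, OD600 read every 2 h. MIC is the lowest concentration with no growth at the end; triplicates, experiment repeated twice.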

Experiment [3] deals with Penicillium expansum EPS26. Described as above. The class given is cell-based. Conditions: Pe, 22°C, seven days, OD 600 nm, lowest concentration with no growth, given as interval of tested concentrations, three replicates, experiment repeated twice. The gist of the method:
as §1

`CC[C@H](C)[C@H](NC(=O)[C@H](CCCCN)NC(=O)[C@H](CCCCN)NC(=O)[C@H](Cc1ccccc1)NC(=O)[C@H](CC(C)C)NC(=O)[C@H](CCCCN)NC(=O)[C@@H](N)CCCCN)C(=O)N[C@@H](CC(C)C)C(=O)N[C@@H](CCCCN)C(=O)N[C@@H](Cc1ccc(O)cc1)C(=O)N[C@@H](CC(C)C)C(N)=O` [BP100, H-Lys-Lys-Leu-Phe-Lys-Lys-Ile-Leu-Lys-Tyr-Leu-NH2]: in experiment [1], the “BCB gene expression, fold induction” value is given as 0.8; the “ERT3 gene expression, fold induction” value is given as 1.0; the “GluA gene expression, fold induction” value was found to be 1.5; the “Harp gene expression, fold induction” value stood at 0.5. In experiment [1], the “LOX gene expression, fold induction” value is on record as 1.2; the “Osm2 gene expression, fold induction” value was 1.0; the “PPO gene expression, fold induction” value is given as 3.2; the “PR1 gene expression, fold induction” value worked out at 2. Moreover, in experiment [1], the “PinII gene expression, fold induction” value worked out at 4.9; the “Sub1 gene expression, fold induction” value worked out at 1.8; the “Tas14 gene expression, fold induction” value is on record as 1.4; the “Defense gene expression in tomato plants (genes overexpressed)” value (“Defense gene expression in tomato plants” below) is “PPO and PinII”. Moreover, the MIC in experiment [2] fell in the range of 0.8 to 1.6 µM. For the same compound, in experiment [3], the MIC is above 25 µM.
In the case of `CCCCCC(=O)NCCCC[C@H](NC(=O)[C@H](CC(C)C)NC(=O)[C@H](CCCCN)NC(=O)[C@H](CCCCN)NC(C)=O)C(=O)N[C@@H](CCCCN)C(=O)N[C@@H](CCCCN)C(=O)N[C@H](C(=O)N[C@@H](CC(C)C)C(=O)N[C@@H](CCCCN)C(=O)N[C@@H](Cc1ccc(O)cc1)C(=O)N[C@@H](CC(C)C)C(N)=O)[C@@H](C)CC` [BP371, Ac-KKLK(COC5H11)KKILKYL-NH2], in experiment [1], the “BCB gene expression, fold induction” value turned out to be 1.0; the “ERT3 gene expression, fold induction” value stood at 0.9; the “GluA gene expression, fold induction” value was 0.5; the “Harp gene expression, fold induction” value is given as 0.9. In experiment [1], the “LOX gene expression, fold induction” value came to 1.1; the “Osm2 gene expression, fold induction” value is recorded as 0.9; the “PPO gene expression, fold induction” value amounted to 0.6; the “PR1 gene expression, fold induction” value is 0.7. In addition, in experiment [1], the “PinII gene expression, fold induction” value was 1.7; the “Sub1 gene expression, fold induction” value amounted to 0.8; the “Tas14 gene expression, fold induction” value is given as 0.7. In addition, the minimum inhibitory concentration (MIC) in experiment [2] was 0.8 to 1.6 µM. Also, the MIC in experiment [3] lay within 3.1 to 6.2 µM.
For the compound `CCCCCC(=O)NCCCC[C@H](NC(=O)[C@H](CCCCN)NC(=O)[C@H](CCCCN)NC(=O)[C@H](Cc1ccccc1)NC(=O)[C@H](CC(C)C)NC(=O)[C@H](CCCCN)NC(=O)[C@H](CCCCN)NC(C)=O)C(=O)N[C@@H](CC(C)C)C(=O)N[C@@H](CCCCN)C(=O)N[C@@H](Cc1ccc(O)cc1)C(=O)N[C@@H](CC(C)C)C(N)=O` [BP374, Ac-KKLFKKK(COC5H11)LKYL-NH2], in experiment [1], the “BCB gene expression, fold induction” value is on record as 1.0; the “ERT3 gene expression, fold induction” value is given as 2.0; the “GluA gene expression, fold induction” value is on record as 0.5; the “Harp gene expression, fold induction” value came out at 0.9. For the same compound, in experiment [1], the “LOX gene expression, fold induction” value is 1.9; the “Osm2 gene expression, fold induction” value is recorded as 1.6; the “PPO gene expression, fold induction” value is on record as 0.7; the “PR1 gene expression, fold induction” value worked out at 0.5. In addition, in experiment [1], the “PinII gene expression, fold induction” value stood at 1.7; the “Sub1 gene expression, fold induction” value was found to be 0.8; the “Tas14 gene expression, fold induction” value is given as 1.2. The MIC in experiment [2] was 0.8 to 1.6 µM. In addition, the minimum inhibitory concentration (MIC) in experiment [3] was above 25 µM.
Take `CCCC(=O)NCCCC[C@H](NC(=O)[C@H](CCCCN)NC(=O)[C@H](Cc1ccccc1)NC(=O)[C@H](CC(C)C)NC(=O)[C@H](CCCCN)NC(=O)[C@H](CCCCN)NC(C)=O)C(=O)N[C@H](C(=O)N[C@@H](CC(C)C)C(=O)N[C@@H](CCCCN)C(=O)N[C@@H](Cc1ccc(O)cc1)C(=O)N[C@@H](CC(C)C)C(N)=O)[C@@H](C)CC` [BP385, Ac-KKLFKK(COC3H7)ILKYL-NH2]: in experiment [1], the “BCB gene expression, fold induction” value is on record as 4.2; the “ERT3 gene expression, fold induction” value was 0.2; the “GluA gene expression, fold induction” value was 0.7; the “Harp gene expression, fold induction” value worked out at 2.3. Besides, in experiment [1], the “LOX gene expression, fold induction” value came to 1.1; the “Osm2 gene expression, fold induction” value turned out to be 1.2; the “PPO gene expression, fold induction” value is 1.7; the “PR1 gene expression, fold induction” value came to 3.2. For the same compound, in experiment [1], the “PinII gene expression, fold induction” value is given as 7.1; the “Sub1 gene expression, fold induction” value is 1.0; the “Tas14 gene expression, fold induction” value came out at 0.7; the “Defense gene expression in tomato plants” value is given as “one gene (Osm2, Tas14 or BCB)”. In experiment [2], the MIC is 1.6 to 3.1 µM. Besides, the MIC in experiment [3] was in the range of 6.2 to 12.5 µM.
Regarding `CCCC(=O)NCCCC[C@H](NC(=O)[C@H](Cc1ccc(O)cc1)NC(=O)[C@H](CCCCN)NC(=O)[C@H](CC(C)C)NC(=O)[C@@H](NC(=O)[C@H](CCCCN)NC(=O)[C@H](CCCCN)NC(=O)[C@H](Cc1ccccc1)NC(=O)[C@H](CC(C)C)NC(=O)[C@H](CCCCN)NC(=O)[C@H](CCCCN)NC(C)=O)[C@@H](C)CC)C(N)=O` [BP390, Ac-KKLFKKILKYK(COC3H7)-NH2], in experiment [1], the “BCB gene expression, fold induction” value is recorded as 0.6; the “ERT3 gene expression, fold induction” value turned out to be 0.7; the “GluA gene expression, fold induction” value came to 0.6; the “Harp gene expression, fold induction” value came to 0.5. In experiment [1], the “LOX gene expression, fold induction” value is given as 1.2; the “Osm2 gene expression, fold induction” value is given as 3.0; the “PPO gene expression, fold induction” value is reported as 0.9; the “PR1 gene expression, fold induction” value came to 0.2. In experiment [1], the “PinII gene expression, fold induction” value amounted to 0.2; the “Sub1 gene expression, fold induction” value came to 0.7; the “Tas14 gene expression, fold induction” value was found to be 1.0; the “Defense gene expression in tomato plants” value is recorded as “one gene (Osm2, Tas14 or BCB)”. Moreover, the MIC in experiment [2] was 0.8 to 1.6 µM. For the same compound, in experiment [3], the MIC lay within 6.2 to 12.5 µM.

As usually defined, the MIC is the smallest concentration in the dilution series that meets the test's criterion for growth inhibition.
